Values of other authors in patent US20130344150A1, “DIRECT COMPRESSION TABLETS OF OTILONIUM” (Abdi Ibrahim IIac Sanayi Ve Ticaret Anonim Sirketi, priority 2009, published 2013).

Experiments:
[1] = clinical studies
[2] = test system: gastrointestinal-motility; conditions: baseline and chemically or physically stimulated

Q: What does the source list for `CCCCCCCCOc1ccccc1C(=O)Nc1ccc(C(=O)OCC[N+](C)(CC)CC)cc1` [otilonium bromide]?
A: tolerability [1]: good tolerability profile; effect on gastrointestinal-motility [2]: inhibits both baseline and chemically or physically stimulated gastrointestinal-motility
